Active and inactive are the calls of the source.
Experiments:
[1] = target: T1, Tyrosine--tRNA ligase, cytoplasmic (Homo sapiens, UniProt P54577)
T1 sequence (P54577 whole entry): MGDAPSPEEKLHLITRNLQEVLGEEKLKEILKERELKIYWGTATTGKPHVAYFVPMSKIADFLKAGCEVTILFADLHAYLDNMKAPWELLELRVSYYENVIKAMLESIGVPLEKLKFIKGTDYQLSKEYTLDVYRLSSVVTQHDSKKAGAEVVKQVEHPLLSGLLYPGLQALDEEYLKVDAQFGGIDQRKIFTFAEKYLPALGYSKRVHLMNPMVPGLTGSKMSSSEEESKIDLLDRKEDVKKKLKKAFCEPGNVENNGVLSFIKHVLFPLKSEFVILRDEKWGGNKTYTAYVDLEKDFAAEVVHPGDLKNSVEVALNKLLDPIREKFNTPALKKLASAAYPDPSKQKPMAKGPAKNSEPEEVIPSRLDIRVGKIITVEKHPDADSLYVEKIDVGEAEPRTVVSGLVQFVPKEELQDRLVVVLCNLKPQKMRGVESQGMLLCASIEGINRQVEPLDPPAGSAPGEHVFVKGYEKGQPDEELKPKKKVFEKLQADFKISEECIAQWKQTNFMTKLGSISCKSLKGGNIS

[2] = target: T2, ATP-dependent RNA helicase DDX42 (Homo sapiens, UniProt Q86XP3)
T2 sequence (Q86XP3 whole entry): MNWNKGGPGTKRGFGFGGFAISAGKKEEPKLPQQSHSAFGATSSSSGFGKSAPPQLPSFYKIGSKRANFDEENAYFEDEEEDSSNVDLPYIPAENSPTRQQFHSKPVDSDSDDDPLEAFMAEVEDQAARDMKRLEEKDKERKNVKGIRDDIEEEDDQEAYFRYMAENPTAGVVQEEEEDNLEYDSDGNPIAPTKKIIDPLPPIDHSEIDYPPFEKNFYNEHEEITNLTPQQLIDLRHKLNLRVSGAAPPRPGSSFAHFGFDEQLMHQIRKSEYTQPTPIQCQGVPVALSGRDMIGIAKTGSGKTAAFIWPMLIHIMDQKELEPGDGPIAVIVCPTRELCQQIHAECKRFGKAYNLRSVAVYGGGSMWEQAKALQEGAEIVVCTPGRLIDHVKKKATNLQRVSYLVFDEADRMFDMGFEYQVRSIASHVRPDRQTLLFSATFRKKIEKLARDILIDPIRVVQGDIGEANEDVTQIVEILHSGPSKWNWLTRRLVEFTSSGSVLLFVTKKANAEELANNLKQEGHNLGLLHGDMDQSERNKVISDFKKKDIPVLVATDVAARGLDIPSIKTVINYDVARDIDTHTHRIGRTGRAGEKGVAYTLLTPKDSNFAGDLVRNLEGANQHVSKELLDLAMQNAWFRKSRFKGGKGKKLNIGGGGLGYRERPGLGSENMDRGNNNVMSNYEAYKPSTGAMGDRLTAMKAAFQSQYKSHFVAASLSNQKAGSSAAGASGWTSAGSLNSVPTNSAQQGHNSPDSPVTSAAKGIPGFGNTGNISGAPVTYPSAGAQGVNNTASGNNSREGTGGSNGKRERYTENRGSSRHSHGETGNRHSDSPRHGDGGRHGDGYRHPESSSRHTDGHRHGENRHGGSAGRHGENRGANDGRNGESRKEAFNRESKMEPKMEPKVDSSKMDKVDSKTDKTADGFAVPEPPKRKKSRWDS

[3] = target: T3, Exosome RNA helicase MTR4 (Homo sapiens, UniProt P42285)
T3 sequence (P42285 whole entry): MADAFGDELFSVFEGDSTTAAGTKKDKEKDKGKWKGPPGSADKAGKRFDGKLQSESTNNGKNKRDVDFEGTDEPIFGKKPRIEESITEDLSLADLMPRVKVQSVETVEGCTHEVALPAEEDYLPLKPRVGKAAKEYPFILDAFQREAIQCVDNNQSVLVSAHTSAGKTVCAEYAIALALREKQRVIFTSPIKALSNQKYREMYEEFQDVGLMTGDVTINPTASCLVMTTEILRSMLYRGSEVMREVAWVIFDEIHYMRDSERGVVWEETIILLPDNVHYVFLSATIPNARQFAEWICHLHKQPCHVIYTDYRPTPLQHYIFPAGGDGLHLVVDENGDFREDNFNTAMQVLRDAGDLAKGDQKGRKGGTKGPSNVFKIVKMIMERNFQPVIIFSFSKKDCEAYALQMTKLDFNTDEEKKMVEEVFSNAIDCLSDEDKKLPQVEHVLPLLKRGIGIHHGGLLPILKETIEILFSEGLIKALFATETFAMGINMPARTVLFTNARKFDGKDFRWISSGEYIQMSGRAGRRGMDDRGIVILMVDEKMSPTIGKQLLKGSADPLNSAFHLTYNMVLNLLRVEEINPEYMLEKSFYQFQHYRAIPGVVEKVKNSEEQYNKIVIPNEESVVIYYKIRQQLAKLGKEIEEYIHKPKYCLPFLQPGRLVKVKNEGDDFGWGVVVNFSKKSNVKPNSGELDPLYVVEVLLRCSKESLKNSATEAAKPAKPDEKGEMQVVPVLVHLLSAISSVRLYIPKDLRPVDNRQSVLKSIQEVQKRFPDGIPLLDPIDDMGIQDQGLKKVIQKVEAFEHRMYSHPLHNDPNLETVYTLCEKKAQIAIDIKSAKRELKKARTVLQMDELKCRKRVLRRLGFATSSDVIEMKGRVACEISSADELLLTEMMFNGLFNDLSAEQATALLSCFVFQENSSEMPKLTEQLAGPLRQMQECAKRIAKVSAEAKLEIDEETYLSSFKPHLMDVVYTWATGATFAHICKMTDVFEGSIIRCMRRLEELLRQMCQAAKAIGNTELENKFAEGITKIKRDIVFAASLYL

Rab-like protein 3 = target: T4, Rab-like protein 3 (Homo sapiens, UniProt Q5HYI8)
T4 sequence (Q5HYI8 whole entry): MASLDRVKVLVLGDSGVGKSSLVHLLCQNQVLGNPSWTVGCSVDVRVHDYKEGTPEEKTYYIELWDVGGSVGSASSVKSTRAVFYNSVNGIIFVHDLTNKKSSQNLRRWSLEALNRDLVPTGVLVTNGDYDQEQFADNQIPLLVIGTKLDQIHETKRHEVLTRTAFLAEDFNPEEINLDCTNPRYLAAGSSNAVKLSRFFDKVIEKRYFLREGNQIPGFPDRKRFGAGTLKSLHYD

[4] = target: Serine/threonine-protein kinase N2 (Homo sapiens, UniProt Q16513)
Sequence of Serine/threonine-protein kinase N2 (Q16513 whole entry): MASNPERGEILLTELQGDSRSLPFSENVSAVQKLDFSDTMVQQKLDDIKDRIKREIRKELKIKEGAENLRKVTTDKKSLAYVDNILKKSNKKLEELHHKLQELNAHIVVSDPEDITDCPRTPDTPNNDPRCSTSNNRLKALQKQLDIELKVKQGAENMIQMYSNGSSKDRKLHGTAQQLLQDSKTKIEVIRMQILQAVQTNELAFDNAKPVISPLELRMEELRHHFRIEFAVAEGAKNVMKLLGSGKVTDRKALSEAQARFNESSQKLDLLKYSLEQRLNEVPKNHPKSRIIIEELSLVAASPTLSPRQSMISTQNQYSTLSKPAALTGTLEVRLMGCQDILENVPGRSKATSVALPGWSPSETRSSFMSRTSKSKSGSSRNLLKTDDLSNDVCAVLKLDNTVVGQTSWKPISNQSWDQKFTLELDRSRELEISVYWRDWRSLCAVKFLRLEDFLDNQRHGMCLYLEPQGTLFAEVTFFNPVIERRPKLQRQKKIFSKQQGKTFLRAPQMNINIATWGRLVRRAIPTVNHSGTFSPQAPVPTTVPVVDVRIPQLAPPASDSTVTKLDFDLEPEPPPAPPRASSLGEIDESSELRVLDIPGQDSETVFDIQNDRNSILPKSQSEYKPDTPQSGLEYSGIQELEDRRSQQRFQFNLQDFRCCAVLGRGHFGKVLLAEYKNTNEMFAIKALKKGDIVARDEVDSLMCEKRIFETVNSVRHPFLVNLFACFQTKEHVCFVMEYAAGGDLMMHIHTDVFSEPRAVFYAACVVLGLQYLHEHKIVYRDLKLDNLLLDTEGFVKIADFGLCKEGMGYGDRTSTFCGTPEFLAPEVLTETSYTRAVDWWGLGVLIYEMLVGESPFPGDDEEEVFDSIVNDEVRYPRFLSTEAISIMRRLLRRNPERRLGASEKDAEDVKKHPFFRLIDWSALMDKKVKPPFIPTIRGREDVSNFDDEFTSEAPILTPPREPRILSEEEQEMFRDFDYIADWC
Note: in the data inactive means no Kd found up to 30 µM.

Row | Compound | Kd [1] | Kd [2] | Kd [3] | Kd (Rab-like protein 3) | Kd [4]
1 | C[C@@H](NC(=O)c1ncnc(N)c1Cl)c1ncc(C(=O)Nc2cc(C(F)(F)F)c(Cl)cn2)s1 [TOVORAFENIB] | > 30 µM (inactive) | > 30 µM (inactive) | > 30 µM (inactive) | > 30 µM (inactive) | > 30 µM (inactive)
2 | Cc1cc(Nc2ncnc3ccc(NC4=NC(C)(C)CO4)cc23)ccc1Oc1ccn2ncnc2c1 [TUCATINIB] | > 30 µM (inactive) | > 30 µM (inactive) | > 30 µM (inactive) | > 30 µM (inactive) | > 30 µM (inactive)
3 | Cn1ncc(Cl)c1-c1cc(C(=O)N[C@H](CN)Cc2ccc(F)c(F)c2)oc1Cl [UPROSERTIB] | > 30 µM (inactive) | > 30 µM (inactive) | > 30 µM (inactive) | > 30 µM (inactive) | > 30 µM (inactive)

Next, values leading:

Row | Kd [1] | Kd [2] | Kd [3] | Kd (Rab-like protein 3) | Kd [4] | Compound
4 | > 30 µM (inactive) | > 30 µM (inactive) | > 30 µM (inactive) | > 30 µM (inactive) | > 30 µM (inactive) | O=C1NC(=O)[C@@H](c2cn3c4c(cccc24)CCC3)[C@@H]1c1c[nH]c2ccccc12 [TIVANTINIB]
5 | > 30 µM (inactive) | > 30 µM (inactive) | > 30 µM (inactive) | > 30 µM (inactive) | 0.028 µM (active) | C[C@@H](N)c1ccc(C(=O)Nc2ccnc3[nH]ccc23)cc1 [Y-39983]
6 | > 30 µM (inactive) | > 30 µM (inactive) | > 30 µM (inactive) | > 30 µM (inactive) | 0.141 µM | CN1C/C=C/CCOc2cccc(c2)-c2ccnc(n2)Nc2cccc(c2)C1 [ZOTIRACICLIB]

From ChEMBL document CHEMBL3991601, “The target landscape of clinical kinase drugs” (Science, 2017)
